Laboratory results reported in patent EP3375430A1, “FRAGRANCE COMPOSITIONS” (Takasago International Corporation, priority 2017, dated 2018).
One block for each molecule: values may come before it.

Key:
[1] = Amount of fragrance ingredients retained on paper blotter after evaporation (ethanol extraction, GC-MS); type: physicochemical
Summary of the method: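 100 µL of fragrance formulation applied to paper blotters kept at 32°C open to air; at each time three blotters extracted 1 h in ethanol with methyl decanoate internal standard and analysed by GC-MS (HP-5MS, 50–280°C). Amounts averaged over triplicates and expressed as percent of time-zero level.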

[2] = Headspace concentration of fragrance ingredients over blotter (thermal desorption GC-MS); type: physicochemical; conditions: for headspace concentration in composition C1 compared to control EdT1 / headspace concentration in composition C14 compared to control EdT1 / headspace concentration in composition C15 compared to control EdT1: fragrance TAK; for headspace concentration in composition C14 compared to control EdT1 / headspace concentration in composition C15 compared to control EdT1: T0+4h and T0+8h; for headspace concentration in composition C14 compared to control EdT1: Figures 17 and 18; for headspace concentration in composition C15 compared to control EdT1: Figures 20 and 21, difference significant for linalool, linalyl acetate and Verdox™;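 for headspace concentration in composition C1 compared to control EdT1: C1 is an invention composition and EdT1 a conventional EdT of fragrance TAK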
Summary of the method: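 Fragrance (100µL) applied to a 10 cm perfumers' blotter held on a 32°C hot plate, equilibrated 5 min; headspace drawn through Tenax TA tubes at 17mL/min until 280mL collected, repeated at later sampling times. Tubes thermally desorbed splitless onto HP-5MS column, GC-MS detection, mass range 35 to 350.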

[3] = Table 3, fragrance TAK in C1, 15 min, 32°C
[4] = Table 3, fragrance TAK in C1, 60 min, 32°C
[5] = Table 3, fragrance TAK in C1, 120 min, 32°C
[6] = Table 3, fragrance TAK in C1, 240 min, 32°C
[7] = Table 3, fragrance TAK in C1, 480 min, 32°C
[8] = Table 3, fragrance TAK in EdT1, 15 min, 32°C
[9] = Table 3, fragrance TAK in EdT1, 60 min, 32°C
[10] = Table 3, fragrance TAK in EdT1, 120 min, 32°C
[11] = Table 3, fragrance TAK in EdT1, 240 min, 32°C
[12] = Table 3, fragrance TAK in EdT1, 480 min, 32°C
[13] = Table 3, fragrance TAK in EdT1 or C1, T0, set at 100% (normalisation)
[14] = Table 4, fragrance TAK in C2, 15 min, 32°C
[15] = Table 4, fragrance TAK in C2, 480 min, 32°C
[16] = Table 4, fragrance TAK in EdT1, 15 min, 32°C
[17] = Table 4, fragrance TAK in EdT1, 480 min, 32°C
[18] = Table 4, fragrance TAK in EdT1 or C2, T0, set at 100% (normalisation)
[19] = Table 5, fragrance TAK in C3, 15 min, 32°C
[20] = Table 5, fragrance TAK in C3, 60 min, 32°C
[21] = Table 5, fragrance TAK in C3, 120 min, 32°C
[22] = Table 5, fragrance TAK in C3, 240 min, 32°C
[23] = Table 5, fragrance TAK in C3, 480 min, 32°C
[24] = Table 5, fragrance TAK in C3, 1440 min, 32°C
[25] = Table 5, fragrance TAK in EdT1, 15 min, 32°C
[26] = Table 5, fragrance TAK in EdT1, 60 min, 32°C
[27] = Table 5, fragrance TAK in EdT1, 120 min, 32°C
[28] = Table 5, fragrance TAK in EdT1, 240 min, 32°C
[29] = Table 5, fragrance TAK in EdT1, 480 min, 32°C
[30] = Table 5, fragrance TAK in EdT1, 1440 min, 32°C
[31] = Table 5, fragrance TAK in EdT1 or C3, T0, set at 100% (normalisation)
[32] = Table 6, fragrance TAK in C4, 15 min, 32°C
[33] = Table 6, fragrance TAK in C4, 60 min, 32°C
[34] = Table 6, fragrance TAK in C4, 120 min, 32°C
[35] = Table 6, fragrance TAK in C4, 240 min, 32°C
[36] = Table 6, fragrance TAK in C4, 480 min, 32°C
[37] = Table 6, fragrance TAK in EdT1, 15 min, 32°C
[38] = Table 6, fragrance TAK in EdT1, 60 min, 32°C
[39] = Table 6, fragrance TAK in EdT1, 120 min, 32°C
[40] = Table 6, fragrance TAK in EdT1, 240 min, 32°C
[41] = Table 6, fragrance TAK in EdT1, 480 min, 32°C
[42] = Table 6, fragrance TAK in EdT1 or C4, T0, set at 100% (normalisation)

SMILES: C=CC(C)(CCC=C(C)C)OC(C)=O (centres unmarked) [Linalyl acetate]
amount of fragrance ingredient retained on blotter (percentage of the initial amount) [1, 3]: 79%
amount of fragrance ingredient retained on blotter (percentage of the initial amount) [1, 4]: 62%
amount of fragrance ingredient retained on blotter (percentage of the initial amount) [1, 5]: 39%
amount of fragrance ingredient retained on blotter (percentage of the initial amount) [1, 6]: 19%
amount of fragrance ingredient retained on blotter (percentage of the initial amount) [1, 7]: 7%
amount of fragrance ingredient retained on blotter (percentage of the initial amount) [1, 8]: 70%
amount of fragrance ingredient retained on blotter (percentage of the initial amount) [1, 9]: 27%
amount of fragrance ingredient retained on blotter (percentage of the initial amount) [1, 10]: 6%
amount of fragrance ingredient retained on blotter (percentage of the initial amount) [1, 11]: 2%
amount of fragrance ingredient retained on blotter (percentage of the initial amount) [1, 12]: <1%
amount of fragrance ingredient retained on blotter (percentage of the initial amount) [1, 13]: 100%
amount of fragrance ingredient retained on blotter (percentage of the initial amount) [1, 14]: 92%
amount of fragrance ingredient retained on blotter (percentage of the initial amount) [1, 15]: 9%
amount of fragrance ingredient retained on blotter (percentage of the initial amount) [1, 16]: 72%
amount of fragrance ingredient retained on blotter (percentage of the initial amount) [1, 17]: 2%
amount of fragrance ingredient retained on blotter (percentage of the initial amount) [1, 18]: 100%
amount of fragrance ingredient retained on blotter (percentage of the initial amount) [1, 19]: 83%
amount of fragrance ingredient retained on blotter (percentage of the initial amount) [1, 20]: 62%
amount of fragrance ingredient retained on blotter (percentage of the initial amount) [1, 21]: 41%
amount of fragrance ingredient retained on blotter (percentage of the initial amount) [1, 22]: 24%
amount of fragrance ingredient retained on blotter (percentage of the initial amount) [1, 23]: 8%
amount of fragrance ingredient retained on blotter (percentage of the initial amount) [1, 24]: 3%
amount of fragrance ingredient retained on blotter (percentage of the initial amount) [1, 25]: 70%
amount of fragrance ingredient retained on blotter (percentage of the initial amount) [1, 26]: 26%
amount of fragrance ingredient retained on blotter (percentage of the initial amount) [1, 27]: 6%
amount of fragrance ingredient retained on blotter (percentage of the initial amount) [1, 28]: 2%
amount of fragrance ingredient retained on blotter (percentage of the initial amount) [1, 29]: <1%
amount of fragrance ingredient retained on blotter (percentage of the initial amount) [1, 30]: <1%
amount of fragrance ingredient retained on blotter (percentage of the initial amount) [1, 31]: 100%
amount of fragrance ingredient retained on blotter (percentage of the initial amount) [1, 32]: 82%
amount of fragrance ingredient retained on blotter (percentage of the initial amount) [1, 33]: 62%
amount of fragrance ingredient retained on blotter (percentage of the initial amount) [1, 34]: 34%
amount of fragrance ingredient retained on blotter (percentage of the initial amount) [1, 35]: 18%
amount of fragrance ingredient retained on blotter (percentage of the initial amount) [1, 36]: 10%
amount of fragrance ingredient retained on blotter (percentage of the initial amount) [1, 37]: 70%
amount of fragrance ingredient retained on blotter (percentage of the initial amount) [1, 38]: 27%
amount of fragrance ingredient retained on blotter (percentage of the initial amount) [1, 39]: 6%
amount of fragrance ingredient retained on blotter (percentage of the initial amount) [1, 40]: 2%
amount of fragrance ingredient retained on blotter (percentage of the initial amount) [1, 41]: <1%
amount of fragrance ingredient retained on blotter (percentage of the initial amount) [1, 42]: 100%
headspace concentration in composition C1 compared to control EdT1 ([2]; T0 + 4h, Figure 3): significantly greater
headspace concentration in composition C14 compared to control EdT1 [2]: significantly greater
headspace concentration in composition C15 compared to control EdT1 [2]: greater
headspace concentration in composition C1 compared to control EdT1 ([2]; T0 + 8h, Figure 4): much greater
headspace concentration in composition C1 compared to control EdT1 ([2]; after 1 hour, Figure 2): greater

amount of fragrance ingredient retained on blotter (percentage of the initial amount) [1, 3]: 80%
amount of fragrance ingredient retained on blotter (percentage of the initial amount) [1, 4]: 62%
amount of fragrance ingredient retained on blotter (percentage of the initial amount) [1, 5]: 39%
amount of fragrance ingredient retained on blotter (percentage of the initial amount) [1, 6]: 18%
amount of fragrance ingredient retained on blotter (percentage of the initial amount) [1, 7]: 2%
amount of fragrance ingredient retained on blotter (percentage of the initial amount) [1, 8]: 70%
amount of fragrance ingredient retained on blotter (percentage of the initial amount) [1, 9]: 29%
amount of fragrance ingredient retained on blotter (percentage of the initial amount) [1, 10]: 2%
amount of fragrance ingredient retained on blotter (percentage of the initial amount) [1, 11]: <1%
amount of fragrance ingredient retained on blotter (percentage of the initial amount) [1, 12]: 1%
amount of fragrance ingredient retained on blotter (percentage of the initial amount) [1, 13]: 100%
amount of fragrance ingredient retained on blotter (percentage of the initial amount) [1, 14]: 92%
amount of fragrance ingredient retained on blotter (percentage of the initial amount) [1, 15]: 3%
amount of fragrance ingredient retained on blotter (percentage of the initial amount) [1, 16]: 74%
amount of fragrance ingredient retained on blotter (percentage of the initial amount) [1, 17]: <1%
amount of fragrance ingredient retained on blotter (percentage of the initial amount) [1, 18]: 100%
amount of fragrance ingredient retained on blotter (percentage of the initial amount) [1, 19]: 83%
amount of fragrance ingredient retained on blotter (percentage of the initial amount) [1, 20]: 64%
amount of fragrance ingredient retained on blotter (percentage of the initial amount) [1, 21]: 44%
amount of fragrance ingredient retained on blotter (percentage of the initial amount) [1, 22]: 27%
amount of fragrance ingredient retained on blotter (percentage of the initial amount) [1, 23]: 3%
amount of fragrance ingredient retained on blotter (percentage of the initial amount) [1, 24]: <1%
amount of fragrance ingredient retained on blotter (percentage of the initial amount) [1, 25]: 70%
amount of fragrance ingredient retained on blotter (percentage of the initial amount) [1, 26]: 27%
amount of fragrance ingredient retained on blotter (percentage of the initial amount) [1, 27]: 2%
amount of fragrance ingredient retained on blotter (percentage of the initial amount) [1, 28]: <1%
amount of fragrance ingredient retained on blotter (percentage of the initial amount) [1, 29]: 1%
amount of fragrance ingredient retained on blotter (percentage of the initial amount) [1, 30]: <1%
amount of fragrance ingredient retained on blotter (percentage of the initial amount) [1, 31]: 100%
amount of fragrance ingredient retained on blotter (percentage of the initial amount) [1, 32]: 83%
amount of fragrance ingredient retained on blotter (percentage of the initial amount) [1, 33]: 64%
amount of fragrance ingredient retained on blotter (percentage of the initial amount) [1, 34]: 36%
amount of fragrance ingredient retained on blotter (percentage of the initial amount) [1, 35]: 18%
amount of fragrance ingredient retained on blotter (percentage of the initial amount) [1, 36]: 3%
amount of fragrance ingredient retained on blotter (percentage of the initial amount) [1, 37]: 70%
amount of fragrance ingredient retained on blotter (percentage of the initial amount) [1, 38]: 29%
amount of fragrance ingredient retained on blotter (percentage of the initial amount) [1, 39]: 2%
amount of fragrance ingredient retained on blotter (percentage of the initial amount) [1, 40]: <1%
amount of fragrance ingredient retained on blotter (percentage of the initial amount) [1, 41]: 1%
amount of fragrance ingredient retained on blotter (percentage of the initial amount) [1, 42]: 100%
amount of fragrance ingredient retained on blotter (percentage of the initial amount) ([1]; Table 9, fragrance COM1 in C5, T0 + 15 min): 75.1%
amount of fragrance ingredient retained on blotter (percentage of the initial amount) ([1]; Table 9, fragrance COM1 in C5, T0 + 480 min): 1.9%
amount of fragrance ingredient retained on blotter (percentage of the initial amount) ([1]; Table 9, fragrance COM1 in C5, T0 +1440 min): <1%
amount of fragrance ingredient retained on blotter (percentage of the initial amount) ([1]; Table 9, fragrance COM1 in C6, T0 + 15 min): 66.4%
amount of fragrance ingredient retained on blotter (percentage of the initial amount) ([1]; Table 9, fragrance COM1 in C6, T0 + 480 min): 1.7%
amount of fragrance ingredient retained on blotter (percentage of the initial amount) ([1]; Table 9, fragrance COM1 in C6, T0 +1440 min): 1.0%
amount of fragrance ingredient retained on blotter (percentage of the initial amount) ([1]; Table 9, fragrance COM1 in EdT2, C5 or C6, T0, set at 100% (normalisation)): 100%
amount of fragrance ingredient retained on blotter (percentage of the initial amount) ([1]; Table 9, fragrance COM1 in EdT2, T0 + 15 min): 61.7%
amount of fragrance ingredient retained on blotter (percentage of the initial amount) ([1]; Table 9, fragrance COM1 in EdT2, T0 + 480 min): 3.7%
amount of fragrance ingredient retained on blotter (percentage of the initial amount) ([1]; Table 9, fragrance COM1 in EdT2, T0 +1440 min): 2.90%
headspace concentration in composition C8 compared to control EdT4 ([2]; COM1 dosed at 20 wt%, up to 8 hours, Figures 8 to 10): significantly higher
headspace concentration in composition C1 compared to control EdT1 ([2]; T0 + 4h, Figure 3): significantly greater
headspace concentration in composition C14 compared to control EdT1 [2]: significantly greater
headspace concentration in composition C15 compared to control EdT1 [2]: greater
headspace concentration in composition C1 compared to control EdT1 ([2]; T0 + 8h, Figure 4): much greater
headspace concentration in composition C1 compared to control EdT1 ([2]; after 1 hour, Figure 2): greater
SMILES: CC(=O)OC1CCCCC1C(C)(C)C (centres unmarked) [Verdox™, (2-tert-butylcyclohexyl) acetate]
